US20220298141A1, “ENZYME INHIBITORS” (KALVISTA PHARMACEUTICALS LIMITED, priority 2019, published 2022)

Key:
Human Factor XIIa = target: T1, Human Factor XIIa (Homo sapiens, UniProt P00748); experiment: Determination of Factor XIIa inhibitory activity in vitro (fluorogenic substrate H-DPro-Phe-Arg-AFC); format: biochemical; conditions: Human Factor XIIa (Enzyme Research Laboratories), 25° C., read-out: Human FXIIa IC50
T1 construct: purchased Enzyme Research Laboratories
T1 sequence (P00748 373-615 limits assumed): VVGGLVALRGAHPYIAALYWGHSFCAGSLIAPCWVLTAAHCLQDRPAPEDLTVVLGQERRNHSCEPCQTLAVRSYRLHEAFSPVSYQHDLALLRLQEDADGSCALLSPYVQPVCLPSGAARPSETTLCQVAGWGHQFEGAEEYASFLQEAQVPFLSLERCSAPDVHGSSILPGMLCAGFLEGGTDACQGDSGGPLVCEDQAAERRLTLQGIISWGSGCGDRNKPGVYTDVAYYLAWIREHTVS
T1 sequence (P00748 20-372 partner limits assumed): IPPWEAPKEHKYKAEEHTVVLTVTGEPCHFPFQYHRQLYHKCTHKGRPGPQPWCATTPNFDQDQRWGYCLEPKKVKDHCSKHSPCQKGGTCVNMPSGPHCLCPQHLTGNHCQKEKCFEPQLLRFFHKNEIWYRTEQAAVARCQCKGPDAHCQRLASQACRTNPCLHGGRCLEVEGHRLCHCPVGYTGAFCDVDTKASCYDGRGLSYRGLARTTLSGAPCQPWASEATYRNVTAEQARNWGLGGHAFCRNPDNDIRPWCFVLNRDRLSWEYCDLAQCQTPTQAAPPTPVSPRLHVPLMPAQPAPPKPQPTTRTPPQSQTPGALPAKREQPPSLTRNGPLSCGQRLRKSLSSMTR
Procedure: Determination of the % Inhibition for FXIIa
Factor XIIa inhibitory activity in vitro was determined using standard published methods (see e.g. Shori et al., Biochem. Pharmacol., 1992, 43, 1209; Baeriswyl et al., ACS Chem. Biol., 2015, 10 (8) 1861; Bouckaert et al., European Journal of Medicinal Chemistry 110 (2016) 181). Human Factor XIIa (Enzyme Research Laboratories) was incubated at 25° C. with the fluorogenic substrate H-DPro-Phe-Arg-AFC and various concentrations of the test compound. Residual enzyme activity (initial rate of reaction) was determined by measuring the […] and the IC50 value for the test compound was determined.

Human FXIa = target: T2, Human FXIa (Homo sapiens, UniProt P03951); experiment: Determination of FXIa inhibitory activity in vitro (fluorogenic substrate Z-Gly-Pro-Arg-AFC); format: biochemical; conditions: Selectivity, Human FXIa (Enzyme Research Laboratories), 25° C.
T2 construct: purchased Enzyme Research Laboratories
T2 sequence (P03951 388-625 limits assumed): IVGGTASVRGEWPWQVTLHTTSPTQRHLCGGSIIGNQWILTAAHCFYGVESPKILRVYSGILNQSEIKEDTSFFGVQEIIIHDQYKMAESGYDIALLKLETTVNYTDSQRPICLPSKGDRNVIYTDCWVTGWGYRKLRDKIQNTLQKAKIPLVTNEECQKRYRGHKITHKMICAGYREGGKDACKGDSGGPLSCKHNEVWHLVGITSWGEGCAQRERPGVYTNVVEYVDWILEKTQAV
T2 sequence (P03951 19-387 partner limits assumed): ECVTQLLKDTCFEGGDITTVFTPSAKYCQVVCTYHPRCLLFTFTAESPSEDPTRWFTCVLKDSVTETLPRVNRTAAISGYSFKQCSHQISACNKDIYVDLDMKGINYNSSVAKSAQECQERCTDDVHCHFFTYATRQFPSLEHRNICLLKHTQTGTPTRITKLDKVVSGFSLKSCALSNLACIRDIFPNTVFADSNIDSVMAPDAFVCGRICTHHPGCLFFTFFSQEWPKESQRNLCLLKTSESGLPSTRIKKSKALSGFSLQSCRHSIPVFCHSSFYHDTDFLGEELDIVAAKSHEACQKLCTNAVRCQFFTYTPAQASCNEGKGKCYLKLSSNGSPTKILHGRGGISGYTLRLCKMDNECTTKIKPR

SMILES	IC50 (Human Factor XIIa)	IC50 (Human FXIa)
Nc1nccc2cc(CNC(=O)c3cc(Cl)cnc3NCc3ccccn3)ccc12 [Example 1.43]	3 to 10 µM	> 40 µM
Nc1nccc2cc(CNC(=O)c3cc(Cl)cnc3Nc3ccc(N4CCOCC4)cc3)ccc12 [Example 1.44]	10 to 40 µM	> 40 µM
Nc1nccc2cc(CNC(=O)c3cc(Cl)cnc3NCC(=O)N3CCOCC3)ccc12 [Example 1.45]	10 to 40 µM	> 40 µM
Nc1nccc2cc(CNC(=O)c3cc(Cl)cnc3NCC(=O)NC3CCCC3)ccc12 [Example 1.46]	10 to 40 µM	> 40 µM
CN1C(C)(C)CC(Nc2ncc(Cl)cc2C(=O)NCc2ccc3c(N)nccc3c2)CC1(C)C [Example 1.47]	1 to 3 µM	> 40 µM
CN1CCN(c2cc(CNc3ncc(Cl)cc3C(=O)NCc3ccc4c(N)nccc4c3)ccn2)CC1 [Example 1.48]	1 to 3 µM	> 40 µM
CC(C)N1CCC(CNc2ncc(Cl)cc2C(=O)NCc2ccc3c(N)nccc3c2)CC1 [Example 1.49]	0.3 to 1 µM	> 40 µM
Nc1nccc2cc(CNC(=O)c3cc(Cl)cnc3NCC3CCN(C4CC4)CC3)ccc12 [Example 1.50, N-((1-aminoisoquinolin-6-yl)methyl)-5-chloro-2-(((1-cyclopropylpiperidin-4-yl)methyl)amino)nicotinamide]	0.3 to 1 µM	> 40 µM
CCN1CCC(CNc2ncc(Cl)cc2C(=O)NCc2ccc3c(N)nccc3c2)CC1 [Example 1.51, N-((1-aminoisoquinolin-6-yl)methyl)-5-chloro-2-(((1-ethylpiperidin-4-yl)methyl)amino)nicotinamide]	< 0.3 µM	> 40 µM
Nc1nccc2cc(CNC(=O)c3cc(Cl)cnc3NCC34CCN(CC3)CC4)ccc12 [Example 1.52]	0.3 to 1 µM	> 40 µM
Nc1nccc2cc(CNC(=O)c3cc(Cl)cnc3NCC3CCN(C4CCCC4)CC3)ccc12 [Example 1.53]	0.3 to 1 µM	> 40 µM
COCCN1CCC(CNc2ncc(Cl)cc2C(=O)NCc2ccc3c(N)nccc3c2)CC1 [Example 1.54, N-((1-aminoisoquinolin-6-yl)methyl)-5-chloro-2-(((1-(2-methoxyethyl)piperidin-4-yl)methyl)amino)nicotinamide]	0.3 to 1 µM	> 40 µM
CC(C)CN1CCC(CNc2ncc(Cl)cc2C(=O)NCc2ccc3c(N)nccc3c2)CC1 [Example 1.55]	0.3 to 1 µM	> 40 µM
Nc1nccc2cc(CNC(=O)c3cc(Cl)cnc3NCC3CCN(CC4CC4)CC3)ccc12 [Example 1.56]	0.3 to 1 µM	> 40 µM
Nc1nccc2cc(CNC(=O)c3cc(Cl)cnc3NCC3CCN(CC(F)(F)F)CC3)ccc12 [Example 1.57]	3 to 10 µM	> 40 µM
Nc1nccc2cc(CNC(=O)c3cc(Cl)cnc3NCC3CCN(C4CCOCC4)CC3)ccc12 [Example 1.58]	1 to 3 µM	> 40 µM
Nc1nccc2cc(CNC(=O)c3cc(Cl)cnc3NCC3CCn4ccnc4C3)ccc12 (stereo not shown) [Example 1.59, N-((1-aminoisoquinolin-6-yl)methyl)-5-chloro-2-(((5,6,7,8-tetrahydroimidazo[1,2-a]pyridin-7-yl)methyl)amino)nicotinamide]	0.3 to 1 µM	> 40 µM
CN1CCC(Nc2ncc(Cl)cc2C(=O)NCc2ccc3c(N)nccc3c2)CC1 [Example 1.60]	1 to 3 µM	> 40 µM
CC(=O)N1CCC(CNc2ncc(Cl)cc2C(=O)NCc2ccc3c(N)nccc3c2)CC1 [Example 1.61]	3 to 10 µM	> 40 µM
CS(=O)(=O)N1CCC(CNc2ncc(Cl)cc2C(=O)NCc2ccc3c(N)nccc3c2)CC1 [Example 1.62]	3 to 10 µM	> 40 µM
Nc1nccc2cc(CNC(=O)c3cc(Cl)cnc3NCC3CCN(Cc4cccnc4)CC3)ccc12 [Example 1.63, N-[(1-amino-6-isoquinolyl)methyl]-5-chloro-2-[[1-(3-pyridylmethyl)-4-piperidyl]methylamino]pyridine-3-carboxamide]	0.3 to 1 µM	> 40 µM
CC(C)N1CCCC(CNc2ncc(Cl)cc2C(=O)NCc2ccc3c(N)nccc3c2)C1 (stereo not shown) [Example 1.64, N-[(1-amino-6-isoquinolyl)methyl]5-chloro-2-[(1-isopropyl-3-piperidyl)methylamino]pyridine-3-carboxamide]	0.3 to 1 µM	> 40 µM
Nc1nccc2cc(CNC(=O)c3cc(Cl)cnc3NCC3CCN(Cc4cscn4)CC3)ccc12 [Example 1.65]	3 to 10 µM	> 40 µM
Nc1nccc2cc(CNC(=O)c3cc(Cl)cnc3NCC3CCN(Cc4nccs4)CC3)ccc12 [Example 1.66]	3 to 10 µM	> 40 µM

SMILES	IC50 (Human Factor XIIa)	IC50 (Human FXIa)
Cn1nccc1CN1CCC(CNc2ncc(Cl)cc2C(=O)NCc2ccc3c(N)nccc3c2)CC1 [Example 1.67]	1 to 3 µM	> 40 µM
Cn1cc(CN2CCC(CNc3ncc(Cl)cc3C(=O)NCc3ccc4c(N)nccc4c3)CC2)cn1 [Example 1.68]	0.3 to 1 µM	> 40 µM
Nc1nccc2cc(CNC(=O)c3cc(Cl)cnc3OCCN3CCCC3)ccc12 [Example 22.08]	10 to 40 µM	–
CN(C)CCOc1ncc(Cl)cc1C(=O)NCc1ccc2c(N)nccc2c1 [Example 22.09]	10 to 40 µM	–
CCN(CC)CCCOc1ncc(Cl)cc1C(=O)NCc1ccc2c(N)nccc2c1 [Example 22.10]	10 to 40 µM	–
Nc1nccc2cc(CNC(=O)c3cc(Cl)cnc3OCCCN3CCCCC3)ccc12 [Example 22.11]	10 to 40 µM	–
Nc1nccc2cc(CNC(=O)c3cc(Cl)cnc3Oc3ccc(N4CCNCC4)cc3)ccc12 [Example 22.12]	3 to 10 µM	–
Nc1nccc2cc(CNC(=O)c3cc(Cl)cnc3Oc3cccc(N4CCNCC4)c3)ccc12 [Example 22.13]	10 to 40 µM	–
CN(Cc1ccccc1)c1ncc(Cl)cc1C(=O)NCc1ccc2c(N)nccc2c1 [Example 28.01, N-((1-aminoisoquinolin-6-yl)methyl)-2-(benzyl(methyl)amino)-5-chloronicotinamide]	10 to 40 µM	–
CN(CC1CCN(c2ccncc2)CC1)c1ncc(Cl)cc1C(=O)NCc1ccc2c(N)nccc2c1 [Example 28.02, N-((1-aminoisoquinolin-6-yl)methyl)-5-chloro-2-(methyl((1-(pyridin-4-yl)piperidin-4-yl)methyl)amino)nicotinamide]	10 to 40 µM	–
CN(C)CCCOc1cccc(CN(C)c2ncc(Cl)cc2C(=O)NCc2ccc3c(N)nccc3c2)c1 [Example 28.03, N-((1-aminoisoquinolin-6-yl)methyl)-5-chloro-2-((3-(3-(dimethylamino)propoxy)benzyl)(methyl)amino)nicotinamide]	3 to 10 µM	–
CN(c1ncc(Cl)cc1C(=O)NCc1ccc2c(N)nccc2c1)C1CCOCC1 [Example 28.04, N-((1-aminoisoquinolin-6-yl)methyl)-5-chloro-2-(methyl(tetra hydro-2H-pyran-4-yl)amino)nicotinamide]	10 to 40 µM	–
CN(c1ccccc1)c1ncc(Cl)cc1C(=O)NCc1ccc2c(N)nccc2c1 [Example 28.05, N-((1-aminoisoquinolin-6-yl)methyl)-5-chloro-2-(methyl(phenyl)amino)nicotinamide]	10 to 40 µM	–
CN(c1cccc(Cl)c1)c1ncc(Cl)cc1C(=O)NCc1ccc2c(N)nccc2c1 [Example 28.06]	10 to 40 µM	–
Nc1nccc2cc(CNC(=O)c3cncc(-c4ccccc4)c3)ccc12 [Example 29.01]	10 to 40 µM	–
Nc1nccc2cc(CNC(=O)c3cncc(-c4ccnn4Cc4ccccc4)c3)ccc12 [Example 29.03, N-((1-aminoisoquinolin-6-yl)methyl)-5-(1-benzyl-1H-pyrazol-5-yl)nicotinamide]	3 to 10 µM	–
Nc1nccc2cc(CNC(=O)c3cncc(CN4CCNCC4)c3)ccc12 [Example 29.04]	10 to 40 µM	–
Nc1nccc2cc(CNC(=O)c3cccc(CN4CCN(CC5CCCC5)CC4)c3)ccc12 [Example 29.09]	3 to 10 µM	–
CN1CCN(Cc2cc(Cl)cc(C(=O)NCc3ccc4c(N)nccc4c3)c2)CC1 [Example 29.10]	3 to 10 µM	–
Nc1nccc2cc(CNC(=O)c3cc(Cl)cc(CN4CCN(CC5CCCC5)CC4)c3)ccc12 [Example 29.11, N-((1-aminoisoquinolin-6-yl)methyl)-3-chloro-5-((4-(cyclopentylmethyl)piperazin-1-yl)methyl)benzamide]	3 to 10 µM	–
C[C@@H]1CCC[C@H](C)N1CC(=O)Nc1cc(Cl)cc(C(=O)NCc2ccc3c(N)nccc3c2)c1 [Example 32.05]	3 to 10 µM	–
COc1ccc(-n2cc(C(F)F)nn2)c(CNC(=O)c2nccnc2NCC2CCN(C)CC2)c1F [Example 33.22]	10 to 40 µM	–
Cc1cc(CN)cc(C)c1CNC(=O)c1nccnc1NCC1CCN(C)CC1 [Example 33.23]	10 to 40 µM	–
